Data taken from PubChem BioAssay AID248 (DTP/NCI, 2004).
“And” between values parts separate entries of the source, which are not always exact repeats. Identical values can stand only once. Inconclusive results and toxic doses are left out. No stated cut-off is given here; in the data, active means T/C of 150% or more; inactive means T/C below 125%.

System: L1210 leukemia ip in BDF1 mice, survival T/C
Experiment: NCI In Vivo Anticancer Drug Screen. Data for tumor model L1210 Leukemia (intraperitoneal) in B6D2F1 (BDF1) mice
Conditions: endpoint: mean survival time, higher = longer survival
Procedure, shortened: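 Tumor cells were implanted, animals were treated, and survival was followed. The result divides the treated measurement by the vehicle-control measurement.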

[1] = dose: 100.0 mg/kg/injection, schedule: Q01DX009 (ip), vehicle: Klucel (hydroxypropylcellulose) (HPC)
[2] = dose: 100.0 mg/kg/injection, schedule: Q04DX002 (ip), vehicle: saline
[3] = dose: 200.0 mg/kg/injection, schedule: Q04DX002 (ip), vehicle: saline
[4] = dose: 25.0 mg/kg/injection, schedule: Q04DX003 (ip), vehicle: saline with Tween-80
[5] = dose: 50.0 mg/kg/injection, schedule: Q04DX003 (ip), vehicle: saline with Tween-80
[6] = dose: 50.0 mg/kg/injection, schedule: Q01DX001 (ip), vehicle: saline
[7] = dose: 100.0 mg/kg/injection, schedule: Q01DX001 (ip), vehicle: saline
[8] = dose: 200.0 mg/kg/injection, schedule: Q01DX001 (ip), vehicle: saline
[9] = dose: 400.0 mg/kg/injection, schedule: Q01DX001 (ip), vehicle: saline
[10] = dose: 50.0 mg/kg/injection, schedule: Q01DX009 (ip), vehicle: saline with Tween-80
[11] = dose: 100.0 mg/kg/injection, schedule: Q01DX009 (ip), vehicle: saline with Tween-80
[12] = dose: 100.0 mg/kg/injection, schedule: Q04DX003 (ip), vehicle: saline with Tween-80
[13] = dose: 200.0 mg/kg/injection, schedule: Q04DX003 (ip), vehicle: saline with Tween-80
[14] = dose: 400.0 mg/kg/injection, schedule: Q04DX003 (ip), vehicle: saline with Tween-80
[15] = dose: 400.0 mg/kg/injection, schedule: Q04DX002 (ip), vehicle: saline

Measured: T/C

CCCCCCCCCCCCCCCCCCNC(=O)Nc1nccs1
inactive: [1] 96 % of control | dose: 150.0 mg/kg/injection, schedule: Q01DX009 (ip), vehicle: Klucel (hydroxypropylcellulose) (HPC) 86 % of control | dose: 200.0 mg/kg/injection, schedule: Q04DX002 (ip), vehicle: Klucel (hydroxypropylcellulose) (HPC) 94 % of control | dose: 225.0 mg/kg/injection, schedule: Q01DX009 (ip), vehicle: Klucel (hydroxypropylcellulose) (HPC) 91 % of control | dose: 335.0 mg/kg/injection, schedule: Q01DX009 (ip), vehicle: Klucel (hydroxypropylcellulose) (HPC) 96 % of control | dose: 400.0 mg/kg/injection, schedule: Q04DX002 (ip), vehicle: Klucel (hydroxypropylcellulose) (HPC) 87 % of control

O=C(O)c1ccc(C(=O)O)nn1
inactive: [2] 96 % of control | [3] 90 % of control

CCCCCCCCCCCC(=O)[O][Pb]([CH2]CCC)([CH2]CCC)[O]C(=O)CCCCCCCCCCC
inactive: dose: 6.25 mg/kg/injection, schedule: Q04DX002 (ip), vehicle: gum acacia 95 % of control | dose: 12.5 mg/kg/injection, schedule: Q04DX002 (ip), vehicle: gum acacia 92 % of control and 98 % of control | dose: 25.0 mg/kg/injection, schedule: Q04DX002 (ip), vehicle: gum acacia 88 % of control

O=C1C=C(O)C2=C(CCCC2)C1=O
inactive: dose: 100.0 mg/kg/injection, schedule: Q01DX001 (ip), vehicle: water 96 % of control

Cn1cc(C(O)CN2CCCCC2)c2ccccc21 (configuration not stated)
inactive: [4] 104 % of control | [5] 97 % of control

Cc1ncc(C(=O)O)c2c1OC(C)(C)OC2
inactive: [6] 100 % of control | [7] 91 % of control | [8] 100 % of control | [9] 94 % of control

CN(CCS)Cc1ccccc1
inactive: dose: 25.0 mg/kg/injection, schedule: Q01DX009 (ip), vehicle: saline with Tween-80 97 % of control | [4] 95 % of control | [10] 99 % of control | [5] 106 % of control | [11] 103 % of control | [12] 97 % of control and 102 % of control

CNc1ccc(/C=N/CCl)cc1
inactive: [12] 92 % of control | [13] 91 % of control | [14] 96 % of control

CCN(CC)CCOC(=O)c1[nH]cnc1N
inactive: [7] 96 % of control | [8] 104 % of control | [9] 96 % of control

O=[N+]([O-])c1ccccc1N1N=NC2CC/C(=C\c3ccc(Cl)cc3)C21N1CCOCC1 (configuration not stated)
inactive: [2] 108 % of control | [3] 89 % of control | [15] 92 % of control

CC1CCCC(c2ccccc2)C1 (configuration not stated)
inactive: dose: 100.0 mg/kg/injection, schedule: Q01DX001 (ip), vehicle: saline with Tween-80 97 % of control | dose: 200.0 mg/kg/injection, schedule: Q01DX001 (ip), vehicle: saline with Tween-80 102 % of control | dose: 400.0 mg/kg/injection, schedule: Q01DX001 (ip), vehicle: saline with Tween-80 101 % of control

O=C(c1ccccc1)C(C(C(=O)c1ccccc1)N1CCOCC1)N1CCOCC1 (configuration not stated)
inactive: [6] 94 % of control | [7] 94 % of control | [8] 102 % of control | [9] 94 % of control

CCN(CC)CCCNCC(Cc1ccccc1)c1ccccc1 (configuration not stated)
inactive: [2] 92 % of control | [3] 99 % of control

CN(C)c1ccc(N=Nc2ccncc2)cc1
inactive: dose: 25.0 mg/kg/injection, schedule: Q01DX009 (ip), vehicle: Klucel (hydroxypropylcellulose) (HPC) 98 % of control | dose: 50.0 mg/kg/injection, schedule: Q01DX009 (ip), vehicle: Klucel (hydroxypropylcellulose) (HPC) 98 % of control | [1] 94 % of control

COC(=O)c1cc(NC(=O)Nc2cc([N+](=O)[O-])ccc2C)cc(C(=O)OC)c1
inactive: [2] 120 % of control | [3] 103 % of control | [15] 116 % of control

C/C(CCc1ccccc1)=N/N(C)C
inactive: [7] 97 % of control | dose: 100.0 mg/kg/injection, schedule: Q01DX009 (ip), vehicle: saline 94 % of control | [8] 95 % of control | dose: 200.0 mg/kg/injection, schedule: Q01DX009 (ip), vehicle: saline 91 % of control | [9] 96 % of control

CCCCN(CCCC)CCCNc1c2c(nc3ccccc13)CCCC2
inactive: dose: 5.0 mg/kg/injection, schedule: Q01DX001 (ip), vehicle: saline 95 % of control | dose: 10.0 mg/kg/injection, schedule: Q01DX001 (ip), vehicle: saline 95 % of control | dose: 20.0 mg/kg/injection, schedule: Q01DX001 (ip), vehicle: saline 93 % of control | dose: 40.0 mg/kg/injection, schedule: Q01DX001 (ip), vehicle: saline 89 % of control | [6] 91 % of control | dose: 80.0 mg/kg/injection, schedule: Q01DX001 (ip), vehicle: saline 93 % of control

CC(Sc1ccc([N+](=O)[O-])cn1)C(=O)O (configuration not stated)
inactive: dose: 50.0 mg/kg/injection, schedule: Q01DX001 (ip), vehicle: carboxymethylcellulose (CMC) 107 % of control | dose: 100.0 mg/kg/injection, schedule: Q01DX001 (ip), vehicle: carboxymethylcellulose (CMC) 101 % of control | dose: 200.0 mg/kg/injection, schedule: Q01DX001 (ip), vehicle: carboxymethylcellulose (CMC) 101 % of control | dose: 400.0 mg/kg/injection, schedule: Q01DX001 (ip), vehicle: carboxymethylcellulose (CMC) 109 % of control

O=C1CCC2(C/C1=N\Nc1ccccc1)OCCO2
inactive: dose: 100.0 mg/kg/injection, schedule: Q04DX003 (ip), vehicle: saline 100 % of control | dose: 200.0 mg/kg/injection, schedule: Q04DX003 (ip), vehicle: saline 96 % of control | dose: 400.0 mg/kg/injection, schedule: Q04DX003 (ip), vehicle: saline 100 % of control

OC1CC2C3CCC(C3)C2C1O (configuration not stated)
inactive: [12] 106 % of control | [13] 90 % of control

Cc1ccc(C(=O)NCCCOc2ccc(N)cc2Cl)cc1S(=O)(=O)F
inactive: [10] 104 % of control | [11] 95 % of control | [12] 103 % of control | dose: 200.0 mg/kg/injection, schedule: Q01DX009 (ip), vehicle: saline with Tween-80 90 % of control | [13] 94 % of control | [14] 105 % of control

CCN(/C=C1\CCOC1=O)CC
inactive: [2] 101 % of control | [3] 97 % of control

CC1(C)N=C(N)N=C(N)N1c1cccc(CC(C(=O)Nc2ccc(S(=O)(=O)F)cc2)c2ccccc2)c1 (configuration not stated)
inactive: dose: 25.0 mg/kg/injection, schedule: Q01DX001 (ip), vehicle: Klucel (hydroxypropylcellulose) (HPC) 95 % of control | dose: 50.0 mg/kg/injection, schedule: Q01DX001 (ip), vehicle: Klucel (hydroxypropylcellulose) (HPC) 95 % of control | dose: 100.0 mg/kg/injection, schedule: Q01DX001 (ip), vehicle: Klucel (hydroxypropylcellulose) (HPC) 94 % of control and 95 % of control | dose: 200.0 mg/kg/injection, schedule: Q01DX001 (ip), vehicle: Klucel (hydroxypropylcellulose) (HPC) 101 % of control

C(=P(c1ccccc1)(c1ccccc1)c1ccccc1)[P+](c1ccccc1)(c1ccccc1)c1ccccc1.[Cl][Fe]([Cl])([Cl])[Br]
inactive: dose: 0.39 mg/kg/injection, schedule: Q01DX009 (ip), vehicle: Klucel (hydroxypropylcellulose) (HPC) 119 % of control | dose: 0.78 mg/kg/injection, schedule: Q01DX009 (ip), vehicle: Klucel (hydroxypropylcellulose) (HPC) 112 % of control | dose: 1.56 mg/kg/injection, schedule: Q01DX009 (ip), vehicle: Klucel (hydroxypropylcellulose) (HPC) 97 % of control and 102 % of control

CC#CCC(N)C(=O)O (configuration not stated)
inactive: dose: 75.0 mg/kg/injection, schedule: Q01DX001 (ip), vehicle: carboxymethylcellulose (CMC) 109 % of control | dose: 80.0 mg/kg/injection, schedule: Q01DX009 (ip), vehicle: saline 105 % of control | dose: 150.0 mg/kg/injection, schedule: Q01DX001 (ip), vehicle: carboxymethylcellulose (CMC) 103 % of control | dose: 160.0 mg/kg/injection, schedule: Q01DX009 (ip), vehicle: saline 106 % of control | dose: 300.0 mg/kg/injection, schedule: Q01DX001 (ip), vehicle: carboxymethylcellulose (CMC) 118 % of control | dose: 320.0 mg/kg/injection, schedule: Q01DX009 (ip), vehicle: saline 94 % of control

CCOc1ccc(NC(=O)CC(C)=O)cc1
inactive: dose: 25.0 mg/kg/injection, schedule: Q04DX003 (ip), vehicle: other 95 % of control | dose: 50.0 mg/kg/injection, schedule: Q04DX003 (ip), vehicle: other 100 % of control | dose: 100.0 mg/kg/injection, schedule: Q04DX003 (ip), vehicle: other 96 % of control
